# Test results from article PMC11500415, “Chemical inhibition of stomatal differentiation by perturbation of the master-regulatory bHLH heterodimer via an ACT-Like domain” (Nature Communications, 2024).
# Values joined by “and” are separate entries in the source; they are usually repeats but may differ in a detail not shown here. Equal values may be shown once.
# System: mute-2 seedlings expressing MUTEpro::MUTE-GFP, MUTEpro::MUTEE162A_E163A-GFP or MUTEpro::MUTER133A_R134A-GFP
# Test: Stomidazolone resistance of mute-2 seedlings expressing engineered MUTE-GFP
# Assay type: in vivo, Arabidopsis
# Protocol: Arabidopsis accession Columbia (Col-0) was used as wild-type. […] Their genotype and transcript reduction were confirmed. The presence of transgenes/mutant alleles were confirmed by genotyping. For liquid culture with Stomidazolone (AYSJ929, compound 3), the analogs (AYSJ1059 (compound 5) and AYSJ1061 (compound 6)), degraded compound lzx103 (compound 4), and SIM3* (compound 7), all compounds were dissolved in dimethyl sulfoxide (DMSO, Molecular biology grade, Fujifilm Wako, Japan 046-21981), Col-0 seeds were sown in 96-well plates (TL5003; True Line) containing 95 μL of 1/2 MS media containing 0.5% sucrose with rotary shaking at 140 rpm under continuous light at 22 °C. Five μL of compounds were dissolved in DMSO at 10 mM and diluted with liquid 1/2 MS media to 1 mM and added on 1-day-old seedlings (final concentration, 50 μM). Seedlings were incubated for 8 days, and at day 9 seedling abaxial cotyledons were observed through confocal microscopy. For liquid culture of scrm-D_S343 and scrm-D_S423, 1/2 MS liquid media without sucrose was used. For the solid culture, 0, 20, 50 or 100 μM Stomidazolone were solidified with low-melting agarose (5805S, PrimeGelTM Agarose LMT 1-20 K, TAKARA Bio). Briefly, 1/2 MS salt, 0.5% sucrose, and 0.8% low melting agarose were mixed in water and autoclaved. After cooling the medium at around 30 °C, Stomidazolone (500x, dissolved in DMSO) was added and poured into 90 mm petri dishes (Asnol Petri Dish JP φ90 x 15 mm, 3-1491-01, AS ONE). Col-0 seeds were sown on Stomidazolone-containing 1/2 MS agarose media and grown under continuous light for 9 days.
# The following constructs for transgenic plants were generated in this study: MUTEpro::MUTE-GFP (pAH11), MUTEpro::MUTEE162AE163A-GFP (pHS133), MUTEpro::MUTER133AR134A-GFP (pHS134). The original MUTEpro::MUTE-GFP construct (pLJP155) was generated via a different cloning strategy with different antibiotics selection. We therefore re-generated the wild-type Three-way Gateway version of MUTEpro::MUTE-GFP (pAH11) as a control. MUTE genomic coding construct without stop codon (pAR205) and MUTE promoter construct (pAR202) were subjected to the Gateway reaction with R4pGWB504[56]. The wild-type MUTE-GFP lines with the identical R4pGWB504 backbone enable a proper comparison of phenotypic complementation. The mutant versions of MUTE constructs were generated in the same way after site-directed mutagenesis using Q5 Site-directed mutagenesis kit (NEB) and subjected to the Three-Way Gateway reaction after sequence confirmation. The constructs were then transformed into the Agrobacterium strain GV3101 and floral dipped into mute-2/+ plants. To construct CaMV35S::H2B-mScarlet-I3/pPZP211 (DKv1400), 35S promoter (35Sp::RFP-CenH3 with DKp665-DKp1254)[57], H2B-(SGGGG)2 linker (from DKv1200[58] with DKp2412-DKp2599), mScarlet-I3 (from codon optimized synthetic DNA for A. thaliana), Nos terminator (from DKv1200 with DKp1251-DKp2598) were amplified using KOD one polymerase (TOYOBO). The PCR products were assembled into BamHI/EcoRI-digested pPZP211[59] using the NEBuilder HiFi DNA Assembly (NEB). For detailed lists of oligo DNA and plasmid information, see Tables S5 and S6, respectively.
# For quantitative analysis of the abaxial leaf epidermis, confocal images were taken on the days after germination as indicated in the Figure legends. Preparation of images was done as described previously[32],[70]. For counting epidermal cell types, stomatal density, stomatal precursor cells (meristemoids), total stomata-lineage cells (stomata and meristemoids) were calculated by counting cell types in an area of 0.4 mm^2 (0.63 mm × 0.63 mm) and plotted as per mm^2. A series of Z-stack confocal images was obtained to obtain images covering the epidermis and capturing GFP/YFP signal from the reporter lines. The area and the number of epidermal cells were quantified by using FIJI-ImageJ. Statistical analyses were performed using R ver. 4.0.2. […]
# [1] = line AH11 Ln5, 20 μM Stomidazolone, cotyledon abaxial epidermis, individual seedlings
# [2] = line HS133 Ln26, 20 μM Stomidazolone, cotyledon abaxial epidermis, individual seedlings
# [3] = line HS134 Ln26, 20 μM Stomidazolone, cotyledon abaxial epidermis, individual seedlings
# [4] = transgenic line AH11 Ln25, cotyledon abaxial epidermis, 20 μM Stomidazolone, individual seedlings
# [5] = transgenic line HS133 Ln19, cotyledon abaxial epidermis, 20 μM Stomidazolone, individual seedlings
# [6] = transgenic line HS134 Ln23, cotyledon abaxial epidermis, 20 μM Stomidazolone, individual seedlings
compound,measurement,setting,value
O=C1C(c2ccccc2)=NC(NS(=O)(=O)c2ccccc2)(c2ccccc2)N1S(=O)(=O)c1ccccc1 (centres unmarked) [Stomidazolone],effect on numbers of stomata and meristemoids (in words),"20 μM, eight days, MUTEpro::MUTEE162A_E163A-GFP and MUTEpro::MUTER133A_R134A-GFP in mute-2",did not significantly affect the numbers of stomata and meristemoids
same,effect on number of stomata (in words),"20 μM, eight days, control MUTEpro::MUTE-GFP mute-2",significantly reduced the number of stomata
same,Meristemoid density,[1],0 per mm2 and 2 per mm2 and 5 per mm2
same,Stomata Total density,[1],165 per mm2 and 160 per mm2 and 190 per mm2 and 197 per mm2 and 136 per mm2 and 163 per mm2 and 180 per mm2
same,total (stomata and meristemoids) density,[1],165 per mm2 and 163 per mm2 and 192 per mm2 and 199 per mm2 and 141 per mm2 and 182 per mm2
same,Meristemoid density,[2],2 per mm2 and 0 per mm2 and 5 per mm2
same,Stomata Total density,[2],279 per mm2 and 170 per mm2 and 177 per mm2 and 226 per mm2 and 425 per mm2 and 199 per mm2
same,total (stomata and meristemoids) density,[2],282 per mm2 and 170 per mm2 and 180 per mm2 and 177 per mm2 and 226 per mm2 and 425 per mm2 and 182 per mm2 and 202 per mm2
same,Meristemoid density,[3],0 per mm2 and 7 per mm2 and 29 per mm2 and 5 per mm2
same,Stomata density,[3],279 per mm2 and 309 per mm2 and 190 per mm2 and 194 per mm2 and 272 per mm2 and 294 per mm2 and 367 per mm2 and 304 per mm2
same,total (stomata and meristemoids) density,[3],279 per mm2 and 316 per mm2 and 197 per mm2 and 224 per mm2 and 272 per mm2 and 294 per mm2 and 367 per mm2 and 309 per mm2
same,Meristemoid density,[4],0 per mm2 and 5 per mm2 and 2 per mm2
same,stomatal density,[4],197 per mm2 and 216 per mm2 and 250 per mm2 and 287 per mm2 and 219 per mm2 and 182 per mm2 and 226 per mm2
same,total (stomata and meristemoids) density,[4],197 per mm2 and 221 per mm2 and 253 per mm2 and 287 per mm2 and 219 per mm2 and 216 per mm2 and 182 per mm2 and 226 per mm2
same,Meristemoid density,[5],0 per mm2 and 5 per mm2 and 2 per mm2 and 17 per mm2
same,stomatal density,[5],267 per mm2 and 442 per mm2 and 316 per mm2 and 250 per mm2 and 209 per mm2 and 224 per mm2 and 437 per mm2 and 294 per mm2
same,total (stomata and meristemoids) density,[5],267 per mm2 and 442 per mm2 and 321 per mm2 and 255 per mm2 and 209 per mm2 and 228 per mm2 and 440 per mm2 and 311 per mm2
same,Meristemoid density,[6],0 per mm2 and 5 per mm2
same,stomatal density (Stomata Total),[6],345 per mm2 and 221 per mm2 and 180 per mm2 and 267 per mm2 and 479 per mm2 and 316 per mm2 and 207 per mm2 and 199 per mm2
same,total (stomata and meristemoids) density,[6],345 per mm2 and 221 per mm2 and 185 per mm2 and 267 per mm2 and 479 per mm2 and 316 per mm2 and 211 per mm2 and 199 per mm2
